One test relates to MDA-protein adducts. In words: Proximal aortic lesion MDA adducts by immunofluorescence. The class given is in vivo, mouse. Conditions: Ldlr−/− mice. From the text: The extent of atherosclerosis was examined both Oil-Red-O-stained cross-sections of the proximal aorta and by en face analysis^30. Briefly, cryosections of 10-micron thickness were cut from the region of the proximal aorta starting from the end of the aortic sinus and for 300 μm distally, according to the method of Paigen et al.^62. The Oil red-O staining of 15 serial sections from the root to ascending aortic region were used to quantify the Oil red-O-positive staining area per mouse. The mean from the 15 serial sections was applied for the aortic root atherosclerotic lesion size per mouse using the KS300 imaging system (Kontron Elektronik GmbH) as described^63, 64, 65. All other stains were done using sections that were 40 to 60 μm distal of the aortic sinus. For each mouse, 4 sections were stained and quantitation was done on the entire cross section of all 4 sections. For immunofluorescence staining, 5 μm cross-sections of the proximal aorta were fixed in cold acetone (Sigma), blocked in Background Buster (Innovex), incubated with indicated primary antibodies (MDA and CD68) at 4° C. for overnight. After incubation with fluorescent labeled secondary antibodies at 37 C for 1 hour, the nucleus was counterstained with Hoechst. Images were captured with a fluorescence microscope (Olympus IX81) and SlideBook 6 (Intelligent-Image) software and quantitated using ImageJ software (NIH)^66.

Test [1] addresses anti-MDA antibody / MDA-BSA (Bos taurus, UniProt P02769). The test can be described thus: Anti-MDA antibody interaction with MDA-BSA (dot blot). Conditions: MDA-BSA incubated with 1× or 5× 2-HOBA. The method, then: A series of doses of MDA-BSA or MDA alone were incubated with 1× or 5×2-HOBA. Then 2 μl of each sample was loaded onto HyBond-C membrane, and incubated with the blocking buffer, primary anti-MDA antibody and fluorescent secondary antibody after vigorous washing. The image was captured by the Odyssey system (FIG. 10A) and quantitated by ImageJ software (FIG. 10B).

Test [2] deals with atherosclerotic lesions of Ldlr−/− mice. The test can be described thus: Masson's Trichrome staining of lesions (collagen, fibrous cap, necrotic area). The class given is in vivo, mouse. An excerpt: Masson's Trichrome Staining was applied for measurement of atherosclerotic lesion collagen content, fibrous cap thickness and necrotic core size following the manufacturer's instructions (Sigma) and as previously described^30. Briefly, 5 μm cross-sections of proximal atherosclerotic aorta root were fixed with Bouin's solution, stained with hematoxylin for nuclei (black) and biebrich scarlet and phosphotungstic/phosphomolybdic acid for cytoplasm (red), and aniline blue for collagen (blue). Images were captured and analyzed for collagen content, atherosclerotic cap thickness and necrotic core by ImageJ software as described previously^30. The necrotic area is normalized to the total lesion area and is expressed as the % necrotic area.

For the next test, the system named is aortic endothelial cells. In words: H2O2-induced apoptosis of endothelial cells (Annexin V). The class given is cell-based, mouse. Conditions: 250 μM H2O2, 24 h, 500 μM compound; compared to vehicle or 4-HOBA. As to the method:
(6A and 6B) Mouse aortic endothelial cells (6A) or primary macrophages (6B) were incubated for 24 h with 250 μM H2O2 alone or with either 4-HOBA or 2-HOBA (500 μM). Apoptotic cells were then detected by Annexin V staining and flow cytometry. (6C to 6H) The mRNA levels of IL-1β, IL-6, and TNF-α were analyzed by real time PCR in the peritoneal macrophages incubated for 24 h with either oxidized LDL (6C-6E) or 250 μM H2O2 (6F-6H) alone or with either 4-HOBA or 2-HOBA (500 μM). (6A to 6H) Data are presented as mean±SEM from three independent experiments, ***p<0.001, One-way ANOVA with Bonferroni's post hoc test.
Peritoneal macrophages were isolated from mice 72 hours post injection of 3% thioglycollate and maintained in DMEM plus 10% fetal bovine serum (FBS, Gibco) as previously described^30. Human aortic endothelial cells (HAECs) were obtained from Lonza and maintained in endothelial cell basal medium-2 plus 1% FBS and essential growth factors (Lonza).
Cell apoptosis was induced as indicated and detected by fluorescent labeled Annexin V staining and quantitated by either Flow Cytometry (BD 5 LSRII) or counting Annexin V positive cells in images captured under a fluorescent microscope. The apoptotic cells in atherosclerotic lesions were measured by TUNEL staining of cross-sections of atherosclerotic proximal aortas as previously described^30. […]

The test system of test [3] is MDA- and IsoLG-lysyl adducts. In words: Aorta dilysyl-MDA crosslinks and IsoLG-lysyl adducts by LC/MS/MS. The class given is in vivo, mouse. Conditions: Ldlr−/− mice. As to the method: Isolation and LC/MS measurement of isolevuglandin-lysyl-lactam (IsoLG-Lys) adducts from aorta of 2-HOBA and 4-HOBA treated Ldlr^−/− mice were performed using a Waters Xevo-TQ-Smicro triple quadrupole mass spectrometer as previously described^69.
Samples (around 1 mg of protein) were digested with proteases as previously described for lysyl-lactam adducts^70. Five nanograms of ^13C6-dilysyl-MDA crosslink standard were added to each cell sample and dilysyl-MDA crosslinks were purified as previously described^71. The dilysyl-MDA crosslink was quantified by isotopic dilution by LC-EST/MS/MS as previously described^71.

Entries after “also recorded” stand apart in the source; their conditions may differ.

Sequence of anti-MDA antibody / MDA-BSA (P02769 25-607): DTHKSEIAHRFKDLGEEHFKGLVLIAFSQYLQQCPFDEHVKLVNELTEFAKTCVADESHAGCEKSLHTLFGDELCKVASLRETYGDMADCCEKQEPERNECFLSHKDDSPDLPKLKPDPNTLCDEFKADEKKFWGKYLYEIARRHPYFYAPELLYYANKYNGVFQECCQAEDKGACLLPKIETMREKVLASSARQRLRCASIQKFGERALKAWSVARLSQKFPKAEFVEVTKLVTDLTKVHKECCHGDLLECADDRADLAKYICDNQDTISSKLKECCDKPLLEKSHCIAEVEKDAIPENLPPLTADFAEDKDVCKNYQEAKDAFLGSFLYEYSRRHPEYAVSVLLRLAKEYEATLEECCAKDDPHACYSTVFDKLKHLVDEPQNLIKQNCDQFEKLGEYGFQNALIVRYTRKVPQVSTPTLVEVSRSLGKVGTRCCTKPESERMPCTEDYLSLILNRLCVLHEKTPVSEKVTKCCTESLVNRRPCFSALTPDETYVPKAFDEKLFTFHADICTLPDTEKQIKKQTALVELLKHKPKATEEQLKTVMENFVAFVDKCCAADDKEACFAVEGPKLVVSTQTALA

`NCc1ccccc1O` [2-HOBA, 2-hydroxybenzylamine]: the “reduction of proximal aortic MDA adduct levels (immunofluorescence)” value in the test with MDA-protein adducts (compared to 4-HOBA) is recorded as 66.8%; in the test with MDA-protein adducts (compared to vehicle alone), 68.5%. In addition, the “interference with antibody recognition of MDA-albumin adducts” value in test [1] is on record as “does not interfere; also recorded: does not impact”. Besides, the “features of stable atherosclerotic plaques” value in test [2] was “promotes features of stable atherosclerotic plaques”. For the same molecule, the “increase of collagen content of the proximal aorta” value was determined as 2.6 fold in test [2] (compared to 4-HOBA) and 2.7 fold in test [2] (compared to vehicle). In addition, the “decrease of % of necrotic area in the proximal aorta” value in test [2] (versus 4-HOBA) stood at 73.5%. For the same molecule, the “fibrous cap thickness, fold greater” value in test [2] (versus 4-HOBA) is recorded as 2.29 fold. Besides, the “number of apoptotic cells, endothelial cell cultures” value in the test with aortic endothelial cells is on record as “markedly decreased”. Moreover, the “MDA and IsoLG adduct content of atherosclerotic lesions/aortas” value in test [3] is “decreases; also recorded: markedly reduced”. Moreover, in test [3] (compared to 4-HOBA treatment), the “decrease of whole aorta IsoLG-lysyl adduct content” value is recorded as 23%. The “decrease of whole aorta MDA-lysyl adduct content” value in test [3] (compared to 4-HOBA treatment) stood at 59%.

The values above are taken from patent publication US20230364032A1, “USE OF 2-HOBA TO TREAT ATHEROSCLEROSIS” (Vanderbilt University, priority 2020, published 2023).
